Measurements from paper PMC4685510, “A Cell Biologist’s Field Guide to Aurora Kinase Inhibitors” (Frontiers in Oncology, 2015).

Legend:
Experiment in all cases: biochemical
Format in all cases: biochemical
[1] = target: T1, 363 human kinases (including Aurora A/B/C) (Homo sapiens, UniProt P35626); conditions: GRK3; for remaining activity at 0.1 µM: 100 nM; for remaining activity at 0.1 µM / remaining activity at 0.5 µM: read-out: % Enzyme Activity (relative to DMSO controls)
T1 sequence (P35626 1-688): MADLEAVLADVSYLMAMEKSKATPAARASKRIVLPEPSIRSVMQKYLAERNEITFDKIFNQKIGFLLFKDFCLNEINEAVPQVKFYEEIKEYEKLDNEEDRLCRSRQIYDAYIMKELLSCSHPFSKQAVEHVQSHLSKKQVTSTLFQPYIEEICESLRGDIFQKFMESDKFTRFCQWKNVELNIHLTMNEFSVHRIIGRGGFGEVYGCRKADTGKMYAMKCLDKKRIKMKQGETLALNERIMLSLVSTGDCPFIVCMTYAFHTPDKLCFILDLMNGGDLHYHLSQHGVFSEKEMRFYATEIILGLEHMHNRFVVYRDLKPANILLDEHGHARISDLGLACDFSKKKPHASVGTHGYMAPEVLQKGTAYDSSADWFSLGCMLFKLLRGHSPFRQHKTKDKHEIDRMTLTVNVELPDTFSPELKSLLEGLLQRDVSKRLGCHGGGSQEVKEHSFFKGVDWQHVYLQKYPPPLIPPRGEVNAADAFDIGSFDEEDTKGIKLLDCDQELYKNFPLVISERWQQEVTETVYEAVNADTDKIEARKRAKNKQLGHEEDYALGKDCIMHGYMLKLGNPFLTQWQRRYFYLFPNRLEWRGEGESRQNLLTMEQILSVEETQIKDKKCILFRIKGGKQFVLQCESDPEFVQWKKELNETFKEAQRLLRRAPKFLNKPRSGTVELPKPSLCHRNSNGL
Description: (§1) However, the Aurora A/B selectivity ratios derived from our in vitro and in vivo data can be compared to prioritize inhibitors.

[2] = target: 363 human kinases (including Aurora A/B/C) (Homo sapiens, UniProt Q86V86); conditions: PIM3; for remaining activity at 0.1 µM: 100 nM; for remaining activity at 0.1 µM / remaining activity at 0.5 µM: read-out: % Enzyme Activity (relative to DMSO controls)
Description: as §1

[3] = target: 363 human kinases (including Aurora A/B/C) (Homo sapiens, UniProt P30291); conditions: WEE1; for remaining activity at 0.1 µM: 100 nM; for remaining activity at 0.1 µM / remaining activity at 0.5 µM: read-out: % Enzyme Activity (relative to DMSO controls)
Description: as §1

[4] = target: 363 human kinases (including Aurora A/B/C) (Homo sapiens, UniProt P42685); conditions: FRK/PTK5; for remaining activity at 0.1 µM: 100 nM; for remaining activity at 0.1 µM / remaining activity at 0.5 µM: read-out: % Enzyme Activity (relative to DMSO controls)
Description: as §1

[5] = target: T2, 363 human kinases (including Aurora A/B/C) (Homo sapiens, UniProt Q9UKI8); conditions: TLK1; for remaining activity at 0.1 µM: 100 nM; for remaining activity at 0.1 µM / remaining activity at 0.5 µM: read-out: % Enzyme Activity (relative to DMSO controls)
T2 sequence (Q9UKI8 1-766): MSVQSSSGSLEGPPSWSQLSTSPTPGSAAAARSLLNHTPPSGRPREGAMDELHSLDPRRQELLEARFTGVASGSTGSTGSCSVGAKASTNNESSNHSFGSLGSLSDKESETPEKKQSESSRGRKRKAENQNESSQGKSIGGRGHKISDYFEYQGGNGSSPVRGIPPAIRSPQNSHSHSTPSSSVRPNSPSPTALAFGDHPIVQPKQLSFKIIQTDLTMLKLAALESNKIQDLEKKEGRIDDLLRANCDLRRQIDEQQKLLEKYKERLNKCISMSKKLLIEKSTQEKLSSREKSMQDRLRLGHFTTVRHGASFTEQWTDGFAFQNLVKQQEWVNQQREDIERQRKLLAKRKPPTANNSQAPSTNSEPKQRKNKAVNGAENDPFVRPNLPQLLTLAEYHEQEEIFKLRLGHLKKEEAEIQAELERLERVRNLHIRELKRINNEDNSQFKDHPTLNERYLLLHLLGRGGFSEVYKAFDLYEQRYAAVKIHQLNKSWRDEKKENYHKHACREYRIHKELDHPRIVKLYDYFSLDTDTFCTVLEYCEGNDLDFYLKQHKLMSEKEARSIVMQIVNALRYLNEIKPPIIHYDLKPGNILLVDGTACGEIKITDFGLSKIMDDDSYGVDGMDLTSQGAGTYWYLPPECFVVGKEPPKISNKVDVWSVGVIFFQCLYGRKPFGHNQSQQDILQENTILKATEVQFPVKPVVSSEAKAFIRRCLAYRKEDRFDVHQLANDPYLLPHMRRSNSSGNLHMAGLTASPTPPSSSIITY
Description: as §1

[6] = target: T3, 363 human kinases (including Aurora A/B/C) (Homo sapiens, UniProt O14920); conditions: IKKb/IKBKB; for remaining activity at 0.1 µM: 100 nM; for remaining activity at 0.1 µM / remaining activity at 0.5 µM: read-out: % Enzyme Activity (relative to DMSO controls)
T3 sequence (O14920 1-756): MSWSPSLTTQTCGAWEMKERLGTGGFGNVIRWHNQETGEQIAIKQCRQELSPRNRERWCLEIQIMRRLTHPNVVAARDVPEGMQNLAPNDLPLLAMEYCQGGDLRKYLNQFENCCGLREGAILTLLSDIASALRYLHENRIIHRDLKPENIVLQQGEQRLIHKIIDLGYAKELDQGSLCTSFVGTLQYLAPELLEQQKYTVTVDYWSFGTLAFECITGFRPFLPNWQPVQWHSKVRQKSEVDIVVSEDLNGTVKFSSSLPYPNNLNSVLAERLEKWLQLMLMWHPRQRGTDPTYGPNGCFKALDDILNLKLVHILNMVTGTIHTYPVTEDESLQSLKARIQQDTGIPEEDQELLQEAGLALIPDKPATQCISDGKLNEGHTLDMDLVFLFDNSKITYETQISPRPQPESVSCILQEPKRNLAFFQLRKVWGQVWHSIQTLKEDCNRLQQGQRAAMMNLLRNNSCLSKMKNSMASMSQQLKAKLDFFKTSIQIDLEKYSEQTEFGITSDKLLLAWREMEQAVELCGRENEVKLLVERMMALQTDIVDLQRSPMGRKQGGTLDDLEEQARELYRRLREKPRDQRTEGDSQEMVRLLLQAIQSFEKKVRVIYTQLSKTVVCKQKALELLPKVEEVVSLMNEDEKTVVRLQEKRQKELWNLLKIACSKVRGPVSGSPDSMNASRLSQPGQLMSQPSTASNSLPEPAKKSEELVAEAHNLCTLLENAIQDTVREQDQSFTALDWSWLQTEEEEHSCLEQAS
Description: as §1

Sequence of 363 human kinases (including Aurora A/B/C) (Homo sapiens, UniProt P30291) (P30291 whole entry): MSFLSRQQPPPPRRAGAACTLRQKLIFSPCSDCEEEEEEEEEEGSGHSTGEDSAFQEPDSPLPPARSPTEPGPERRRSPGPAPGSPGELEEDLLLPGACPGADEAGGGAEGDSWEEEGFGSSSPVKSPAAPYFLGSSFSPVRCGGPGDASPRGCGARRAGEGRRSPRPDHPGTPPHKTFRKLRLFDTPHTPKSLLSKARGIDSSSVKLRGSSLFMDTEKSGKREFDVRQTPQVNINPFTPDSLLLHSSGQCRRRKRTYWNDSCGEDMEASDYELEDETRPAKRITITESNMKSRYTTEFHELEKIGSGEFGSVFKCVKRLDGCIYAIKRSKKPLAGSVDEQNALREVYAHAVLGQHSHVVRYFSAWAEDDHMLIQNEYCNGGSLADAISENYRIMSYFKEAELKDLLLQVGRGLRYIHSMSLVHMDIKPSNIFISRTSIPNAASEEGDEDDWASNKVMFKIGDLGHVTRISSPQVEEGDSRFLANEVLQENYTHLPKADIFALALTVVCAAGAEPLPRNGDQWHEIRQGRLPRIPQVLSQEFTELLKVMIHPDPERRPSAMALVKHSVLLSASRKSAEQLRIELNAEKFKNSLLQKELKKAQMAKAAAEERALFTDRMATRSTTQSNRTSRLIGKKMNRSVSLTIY
Sequence of 363 human kinases (including Aurora A/B/C) (Homo sapiens, UniProt P42685) (P42685 whole entry): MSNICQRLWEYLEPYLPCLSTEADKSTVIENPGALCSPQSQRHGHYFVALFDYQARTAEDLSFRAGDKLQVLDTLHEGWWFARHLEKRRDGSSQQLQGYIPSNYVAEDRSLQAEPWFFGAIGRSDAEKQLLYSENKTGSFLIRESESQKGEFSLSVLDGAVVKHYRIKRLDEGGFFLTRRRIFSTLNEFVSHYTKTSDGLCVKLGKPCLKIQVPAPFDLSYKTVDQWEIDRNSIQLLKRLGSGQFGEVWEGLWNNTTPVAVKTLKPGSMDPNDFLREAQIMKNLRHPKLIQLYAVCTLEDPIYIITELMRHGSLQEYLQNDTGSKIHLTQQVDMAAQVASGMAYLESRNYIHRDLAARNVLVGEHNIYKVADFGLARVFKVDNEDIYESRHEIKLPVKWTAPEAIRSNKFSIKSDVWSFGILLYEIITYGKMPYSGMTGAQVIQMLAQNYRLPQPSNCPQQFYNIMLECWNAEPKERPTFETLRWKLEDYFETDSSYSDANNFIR

Structure (SMILES) | remaining activity at 0.1 µM [1] [%] | remaining activity at 0.5 µM ([1]; 500 nM) [%] | remaining activity at 0.1 µM [2] [%] | remaining activity at 0.5 µM ([2]; 500 nM) [%] | remaining activity at 0.1 µM [3] [%] | remaining activity at 0.5 µM ([3]; 500 nM) [%] | remaining activity at 0.1 µM [4] [%] | remaining activity at 0.5 µM ([4]; 500 nM) [%] | remaining activity at 0.1 µM [5] [%] | remaining activity at 0.5 µM ([5]; 500 nM) [%] | remaining activity at 0.1 µM [6] [%] | remaining activity at 0.5 µM ([6]; 500 nM) [%] | % Enzyme Activity (relative to DMSO controls) ([1]; 500 nM) [%] | % Enzyme Activity (relative to DMSO controls) ([2]; 500 nM) [%] | % Enzyme Activity (relative to DMSO controls) ([3]; 500 nM) [%] | % Enzyme Activity (relative to DMSO controls) ([4]; 500 nM) [%] | % Enzyme Activity (relative to DMSO controls) ([5]; 500 nM) [%] | % Enzyme Activity (relative to DMSO controls) ([6]; 500 nM) [%]
O=C(O)[C@]1(Cc2cccc(Nc3nccs3)n2)CC[C@@H](Oc2cccc(Cl)c2F)CC1 [MK-5108] | 101 | 101 | 93.8 | 62.2 | 106 | 93.4 | 41 | 19.8 | 95.7 | 116 | 103 | 128 |  |  |  |  |  | 
O=C(c1cccc(Cl)c1F)N1CCN(Cc2cccc(Nc3nccs3)n2)CC1 [MK-8745] |  | 101 |  | 96 |  | 105 |  | 98.1 |  | 125 |  | 119 | 99.18 | 94.49 | 99.94 | 94.09 | 119.91 | 112.10
CCn1cc(-c2ccnc3[nH]c(-c4cccc(CN(C)C)c4)cc23)c(-c2ccc(NC(=O)N(C)C)cc2)n1 [GSK1070916] | 98.2 |  | 106 |  | 97 |  | 99.9 |  | 120 |  | 126 |  |  |  |  |  |  | 
